Measurements reported in patent publication US11433090B2, “mTOR-inhibitor-containing medicine for treating or preventing ophthalmic symptoms, disorders, or diseases, and application thereof” (The Doshisha, priority 2017, dated 2022).

Test system: caspase 3/7
Assay: Caspase-Glo 3/7 Assay in iFECD stimulated with TGF-β2
Format: cell-based, human
Details: TGF-β2 10 ng/ml, Dunnett-t test, n=5
Experimental: The medium was removed from a culture dish in which iFECDs were being cultured, and the cells were supplemented with 1×PBS (−) that was preheated to 37° C., and were washed. This was repeated twice. The cells were supplemented again with 1×PBS (−) and incubated for 3 minutes at 37° C. (5% CO2). After removing the PBS (−), the cells were supplemented with 0.05% Trypsin-EDTA (Nacalai Tesque, 32778-34) and incubated for 5 minutes at 37° C. (5% CO2). The cells were then suspended in a medium, and collected by centrifugation at 1500 rpm for 3 minutes. DMEM (Nacalai Tesque, 08456-36)+10% FBS (Biowest, S1820-500)+1% P/S (Nacalai Tesque, 26252-94) was used as the medium.
Corneal endothelial cells from immortalized FECD patients (lot: iFECD3-5) were seeded on a 96-well plate at a ratio of 4×10^3 cells per well and cultured for 24 hours at 37° C. (5% CO2) (medium: DMEM+10% FBS+1% P/S). After 24 hours, the medium was removed. Each mTOR inhibitor was added to culture the cells for 24 hours (medium: DMEM+2% FBS+1% P/S). After 24 hours, the medium was removed. Media containing 10 ng/ml of Recombinant Human TGF-β2 (Wako, 200-19911) and each mTOR inhibitor were added to culture the cells for 24 hours (medium: DMEM+2% FBS+1% P/S). After 24 hours, the cell morphology and apoptosis were observed under a phase difference microscope.
After observation, measurement of caspase 3/7 activity by Caspase-Glo® 3/7 Assay was carried out with the following procedure.
The medium was discarded to achieve 50 μl per well. 50 μl/well of Caspase Glo® 3/7 Assay Reagent (mixture of Caspase-Glo® 3/7 Assay Buffer and Caspase-Glo® 3/7 Assay Substrate) (Promega, G8091) solution was added so as to achieve 1:1 with the medium. The operations hereafter were carried out while being shaded. A shaker was used to mix the content well for two minutes at about 120 minutes^−1 to then be left for 40 minutes at room temperature. After being left, 80 μl was moved to Assay plate (Corning, 3912, Assay plate 96 well, white polystyrene) and […] was measured using GloMax-Multi Detection System (Promega, E7051).
The following mTOR inhibitors were used in this Example. • Rapamycin (Wako, #53123-88-9) • Everolimus (Cayman Chemical, #11597) • Temsirolimus (Tocris Bioscience, #5264) • PI-103 (Cayman Chemical, #10009209) • CC-223 (Cayman Chemical, #19917) • INK128 (Cayman Chemical, #11811) • AZD8055 (Cayman Chemical, #16978) • KU 0063794 (Tocris Bioscience, #3725)

| Structure (SMILES) | activity of caspase 3/7 compared to control (0.01 μM) | activity of caspase 3/7 compared to control (0.1 μM) | activity of caspase 3/7 compared to control (1 μM) | activity of caspase 3/7 compared to control (0.001 μM) | activity of caspase 3/7 compared to control (0.00001 μM) | activity of caspase 3/7 compared to control (0.0001 μM) | activity of caspase 3/7 compared to control (0.000001 μM) | activity of caspase 3/7 compared to control (10 μM) |
| --- | --- | --- | --- | --- | --- | --- | --- | --- |
| COc1ccc(-c2ccc3c(N4CCOC[C@@H]4C)nc(N4CCOC[C@@H]4C)nc3n2)cc1CO [AZD8055] | significantly suppressed | significantly suppressed | significantly suppressed |  |  |  |  |  |
| CO[C@H]1CC[C@H](N2C(=O)CNc3ncc(-c4ccc(C(C)(C)O)nc4)nc32)CC1 [CC-223] | significantly suppressed | significantly suppressed | significantly suppressed | significantly suppressed |  |  |  |  |
| CC(C)n1nc(-c2ccc3oc(N)nc3c2)c2c(N)ncnc21 [INK128] | significantly suppressed | significantly suppressed | significantly suppressed | significantly suppressed |  |  |  |  |
| COc1ccc(-c2ccc3c(N4CCOCC4)nc(N4C[C@@H](C)O[C@@H](C)C4)nc3n2)cc1CO [KU 0063794] | significant difference was not found | significantly suppressed | significantly suppressed | significant difference was not found |  |  |  |  |
| Oc1cccc(-c2nc(N3CCOCC3)c3oc4ncccc4c3n2)c1 [PI-103] | significantly suppressed | significantly suppressed | significant difference was not found | significantly suppressed |  |  |  |  |
| CO[C@H]1C[C@@H]2CC[C@@H](C)[C@@](O)(O2)C(=O)C(=O)N2CCCC[C@H]2C(=O)O[C@H]([C@H](C)C[C@@H]2CC[C@@H](OCCO)[C@H](OC)C2)CC(=O)[C@H](C)/C=C(\C)[C@@H](O)[C@@H](OC)C(=O)[C@H](C)C[C@H](C)/C=C/C=C/C=C/1C [everolimus, Everolimus] | significantly suppressed | significantly suppressed |  | significantly suppressed | significantly suppresses | significantly suppressed |  |  |
| CO[C@H]1C[C@@H]2CC[C@@H](C)[C@@](O)(O2)C(=O)C(=O)N2CCCC[C@H]2C(=O)O[C@H]([C@H](C)C[C@@H]2CC[C@@H](OC(=O)C(C)(CO)CO)[C@H](OC)C2)CC(=O)[C@H](C)/C=C(\C)[C@@H](O)[C@@H](OC)C(=O)[C@H](C)C[C@H](C)/C=C/C=C/C=C/1C [temsirolimus, Temsirolimus] | significantly suppressed | significantly suppressed | significantly suppressed | significantly suppressed | significantly suppressed | significantly suppressed | significant difference was not found | significantly suppressed |
